Reference: US20130287890A1, “INHIBITOR OF THE PRODUCTION OF ADVANCED GLYCATION END PRODUCTS” (UENO FINE CHEMICALS INDUSTRY, LTD., priority 2012, published 2013)

Assays:
[1] = tested on: 3-DG; assay: Quantitative determination of 3-DG (HPLC) after reaction of amino acid or biological protein with carbohydrates at 37° C. for 42 days; format: biochemical; conditions: for 3-DG: 37° C., 42 days
Procedure: (§1) Amino acid or biological protein, carbohydrates and a phosphate buffer solution were charged in a 50 mL polypropylene centrifuge tube in each amount shown in Table 8, followed by sealing and stirring, and then the mixture was reacted in an incubator at 37° C. for 42 days. Next, the reactant was fractionated by centrifugation at 3,000 rpm for 3 hours using an ultrafiltration unit (VIVA SPIN 20, manufactured by Sartorius Corporation). The obtained low molecular weight fraction was used as a sample for determination of 3-DG, while the obtained high molecular weight fraction was used as a sample for the determination of fluorescent AGEs. Amino acid, biological protein and carbohydrates used are as follows:
In the same manner as in Test Example 1, except that the low molecular weight fraction prepared as mentioned above was used as a sample, quantitative determination of 3-DG was performed. In the same manner as in Test Example 2, except that the high molecular weight fraction prepared as mentioned above was used as a sample, determination of fluorescent AGEs was performed.
(§2) Amino acid, carbohydrates and a phosphate buffer solution were charged in a 50 mL polypropylene centrifuge tube in each amount shown in Table 10, followed by sealing and stirring, and then the mixture was reacted in an incubator at 37° C. for 42 days. Next, the reactant was filtered through a 0.2 μm filter and the obtained filtrate was used as a sample. Amino acid and carbohydrates used are as follows:
To 2 mL of a sample, the same amount of a 60% perchloric acid solution was added to deproteinize the sample. The sample was neutralized with 4 mL of an aqueous saturated sodium hydrogen carbonate solution and 0.8 mL of a 0.1% methanol solution of 2,3-diaminonaphthalene was added, and then the mixture was reacted at 4° C. for 16 hours. Next, the reactant was extracted with 4.4 mL of ethyl acetate, concentrated to dryness using an evaporator, dissolved in 5 mL of methanol, and then filtered through a 0.45 μm filter. The filtrate was subjected to high-performance liquid chromatography and 3-DG was quantitatively determined under the following measurement conditions.
Injection amount: 20 μL Column: TSK-GEL, ODS-80Ts (4.6×150 mm, manufactured by TOSOH CORPORATION) Column temperature: 30° C. Mobile phase: 50 mM phosphoric acid:methanol:acetonitrile=7:1.5:1.5 Flow rate: 1 mL/min.
as §1, with “Biological proteins,” for “Amino acid or biological protein,”, “are” for “were”, “12,” for “8,”, “AGEs, pentosidine, CML, RAGE agonist activity and RAGE antagonist activity. Biological proteins” for “AGEs. Amino acid, biological protein”
(§3) In the same manner as in Test Example 4, except that the low molecular weight fraction prepared as mentioned above was used as a sample, quantitative determination of 3-DG was performed. In the same manner as in Test Example 4, except that the high molecular weight fraction was filtered through a 0.2 μm filter and the filtrate was used as a sample, fluorescent AGEs, pentosidine, CML, RAGE agonist activity and RAGE antagonist activity were evaluated.
Collagen, carbohydrates and a phosphate buffer solution were charged in a 50 mL polypropylene centrifuge tube in each amount shown in Table 14, followed by sealing and stirring, and then the mixture was reacted in an incubator at 37° C. for 42 days. Next, the reactant was fractionated by centrifugation at 3,000 rpm for 3 hours using an ultrafiltration unit (VIVA SPIN 20, manufactured by Sartorius Corporation). […]

[2] = target: T1, human RAGE (Homo sapiens, UniProt Q15109); assay: RAGE antagonist activity of reaction samples (37° C., 42 days) mixed with AGE-BSA, NF-κB luciferase assay in C6 glioma cells; format: cell-based, rat C6 glioma cells expressing human RAGE
T1 construct: human RAGE plasmid (including full-length human RAGE cDNA); expressed in transfected cells; host or cells: C6 glioma cells carrying pNF-κB-Luc plasmid and human RAGE plasmid
Procedure: as §2
Using Luciferase Assay System (manufactured by Promega Corporation), evaluation of RAGE antagonist activity was performed. (Day 1) According to the methods disclosed in Diabetes, 2006, vol. 55, pp. 2510-2522, C6 glioma cells into which pNF-κB-Luc plasmid (manufactured by Stratagene Corporation) and human RAGE plasmid (including full-length human RAGE cDNA) have been introduced were seeded at 100 μL/well into a 96-well plate and cultured in a CO2 incubator until the cells were confluent. For the culture, 10% FBS/DMEM medium was used. (Day 2) The medium was removed, and after wells were washed with 300 μL of serum-free DMEM medium, 100 μL of 0.1% FBS/DMEM medium was slowly added. Then, the medium was incubated overnight in a CO2 incubator. (Day 3) The sample was diluted using the medium, and 50 μL of the diluted sample, AGE-BSA in which AGE was formed with glyceraldehydes (50 μg/mL) as a control, and the mixture of diluted sample and AGE-BSA were added to wells. After incubation in a CO2 incubator for 4 hours, the medium was removed and wells were washed 2 times with 300 μL of PBS (−). Then, 25 μL of 1× lysis buffer was added on ice. After the plate was shaken for 15 seconds, 20 μL of lysate was charged in a new white plate. Further 100 μL of a luciferase assay reagent was added, and a […] was measured by a luminometer. Using 5 μL of lysate, quantitative determination of protein was also performed.
as §1, with “Biological proteins,” for “Amino acid or biological protein,”, “are” for “were”, “12,” for “8,”, “AGEs, pentosidine, CML, RAGE agonist activity and RAGE antagonist activity. Biological proteins” for “AGEs. Amino acid, biological protein”
as §3
Collagen, carbohydrates and a phosphate buffer solution were charged in a 50 mL polypropylene centrifuge tube in each amount shown in Table 14, followed by sealing and stirring, and then the mixture was reacted in an incubator at 37° C. for 42 days. Next, the reactant was fractionated by centrifugation at 3,000 rpm for 3 hours using an ultrafiltration unit (VIVA SPIN 20, manufactured by Sartorius Corporation). The obtained low molecular weight fraction was used as a sample for determination of 3-DG. Meanwhile, 0.4 g of a high molecular weight fraction and 8 mL of 6N hydrochloric acid were charged in an ampule and the air in the ampule was replaced with nitrogen, and then hydrolysis was performed at 110° C. for 16 hours in a heat block. After reaction, 8 mL of 5N sodium hydroxide was added, and pH was adjusted using 1N hydrochloric acid and 1N sodium hydroxide to make pH within a range of 7.2 to 7.6. […]

[3] = Test Example 4, amino acid 0.4 g + carbohydrate 1.8 g
[4] = Test Example 5, bovine serum albumin 0.4 g + carbohydrate 1.8 g
[5] = Test Example 5, human serum albumin 0.4 g + carbohydrate 1.8 g
[6] = Test Example 5, γ-globulin 0.4 g + carbohydrate 1.8 g
[7] = Test Example 6, collagen 0.015 g + carbohydrate 1.8 g
[8] = Test Example 4, amino acid + carbohydrate, mixture of sample and AGE-BSA, amount of protein 100 μg/mL, relative to control (AGE-BSA) = 1
[9] = Test Example 5, bovine serum albumin + carbohydrate, mixture of sample and AGE-BSA, protein 100 μg/mL, relative to control (AGE-BSA) = 1
[10] = Test Example 5, human serum albumin + carbohydrate, mixture of sample and AGE-BSA, protein 100 μg/mL, relative to control (AGE-BSA) = 1
[11] = Test Example 5, γ-globulin + carbohydrate, mixture of sample and AGE-BSA, protein 10 μg/mL, relative to control (AGE-BSA) = 1
[12] = Test Example 6, collagen + carbohydrate, mixture of sample and AGE-BSA, protein 10 μg/mL, relative to control (AGE-BSA) = 1
[13] = Test Example 3, amino acid (lysine:arginine 1:1) 0.4 g + glucose 1.8 g or maltitol 3.4 g
[14] = Test Example 3, bovine serum albumin 0.4 g + glucose 1.8 g or maltitol 3.4 g
[15] = Test Example 5, bovine serum albumin, human serum albumin, γ-globulin, compared with sections containing glucose
[16] = Test Example 6, collagen, compared with sections containing glucose and fructose

T1 sequence (Q15109 23-404): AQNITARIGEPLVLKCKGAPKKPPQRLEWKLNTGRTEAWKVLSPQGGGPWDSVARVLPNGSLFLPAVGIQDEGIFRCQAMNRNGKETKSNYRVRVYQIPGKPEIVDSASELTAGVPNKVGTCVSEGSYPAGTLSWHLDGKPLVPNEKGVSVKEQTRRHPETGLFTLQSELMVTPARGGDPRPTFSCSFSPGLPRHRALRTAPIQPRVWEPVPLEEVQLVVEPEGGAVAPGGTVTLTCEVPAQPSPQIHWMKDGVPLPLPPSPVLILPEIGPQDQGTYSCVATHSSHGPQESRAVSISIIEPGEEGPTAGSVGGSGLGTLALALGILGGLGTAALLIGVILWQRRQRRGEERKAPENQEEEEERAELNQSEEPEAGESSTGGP

SMILES	3-DG [1, 3]	3-DG [1, 4]	3-DG [1, 5]	3-DG [1, 6]	3-DG [1, 7]	RAGE antagonist activity [2, 8]	RAGE antagonist activity [2, 9]	RAGE antagonist activity [2, 10]	RAGE antagonist activity [2, 11]	RAGE antagonist activity [2, 12]	3-DG [1, 13]	3-DG [1, 14]	also measured
O=C(CO)[C@@H](O)[C@H](O)[C@H](O)CO [Fructose]	904 nmol/1 mL of reaction solution	5316 nmol/1 mL of reaction solution	2358 nmol/1 mL of reaction solution	877 nmol/1 mL of reaction solution	1447 nmol/1 mL of reaction solution	0.70	1.15	1.33	1.08	2.49			
O=C[C@H](O)[C@@H](O)[C@H](O)[C@H](O)CO [Glucose]	8310 nmol/1 mL of reaction solution	10253 nmol/1 mL of reaction solution	2575 nmol/1 mL of reaction solution	877 nmol/1 mL of reaction solution	232 nmol/1 mL of reaction solution	0.56	1.08	1.20	1.07	2.85	22,761 nmol/1 g of protein	29,938 nmol/1 g of protein	
OC[C@@H](O)[C@@H](O[C@H]1O[C@H](CO)[C@@H](O)[C@H](O)[C@H]1O)[C@H](O)[C@@H](O)CO [Maltitol]											127 nmol/1 g of protein	1,181 nmol/1 g of protein	production of 3-DG ([1]; Test Example 3, amino acids and bovine serum albumin, compared with sections containing glucose): significantly decreased
OC[C@@H](O)[C@@H](O)[C@H](O)[C@@H](O)CO [Sorbitol]	13 nmol/1 mL of reaction solution	33 nmol/1 mL of reaction solution	78 nmol/1 mL of reaction solution	21 nmol/1 mL of reaction solution	24 nmol/1 mL of reaction solution	0.66	1.08	1.01	0.90	1.22			production of 3-DG ([1]; Test Example 4, amino acid, compared with sections containing glucose and fructose): significantly decreased; production of 3-DG ([1]; Test Example 5, bovine serum albumin, human serum albumin, γ-globulin, compared with sections containing fructose): significantly decreased; production of 3-DG [1, 15]: decreased; production of 3-DG [1, 16]: significantly decreased; RAGE antagonist activity ([2]; Test Example 4, amino acid, compared with the test section 2 containing fructose): decreased; RAGE antagonist activity [2, 15]: decreased; RAGE antagonist activity ([2]; Test Example 5, test sections 3 and 6 (bovine serum albumin, human serum albumin), compared with sections containing fructose): decreased; RAGE antagonist activity [2, 16]: decreased
